From US20230248741A1, “Compositions and Methods for Lowering Triglycerides in a Subject with Reduced Kidney Function and Diabetes Mellitus” (Amarin Pharmaceuticals Ireland Limited, priority 2018, published 2023)

Test system: subjects with Age-Associated Memory Impairment
Assay: Safety and tolerability (TEAEs), 6-week AAMI study
Type: in vivo, human
Procedure: All randomized subjects that received at least 1 dose of study medication were included in the Safety Population.
Safety evaluations were based on the safety population. Safety and tolerability were assessed in terms of AEs, vital signs, 12-lead ECG, clinical laboratory data, medical history, and study drug compliance. Safety and tolerability data were presented by treatment group.

In the case of `CC/C=C\C/C=C\C/C=C\C/C=C\C/C=C\CCCC(=O)OCC` [E-EPA, ethyl eicosapentaenoate], the “subjects with nausea Possibly Related to the study drug” value (“subjects with nausea Possibly Related” for short) (1 g E-EPA cohort) was “two”, the “TEAE Probably Related to the study drug” value (1 g E-EPA, one subject) was “nausea” and the “subjects with nausea Possibly Related” value (2 g E-EPA cohort) was “one”. For the same compound, the “Serious Adverse Event (worsening epigastric chest pain), relation to study drug” value (2 g E-EPA, one subject) was “unrelated to the study drug”, the “subjects with nausea Possibly Related” value (4 g E-EPA cohort) was “two” and the “TEAE Probably Related to the study drug” value (4 g E-EPA, one subject) was “diarrhea”. For the same compound, the SAE reported (E-EPA 2 g treatment group) was “One”, the “subjects discontinued due to TEAEs” value (E-EPA 2 g treatment group) was 2 subjects and the TEAEs reported (E-EPA treatment groups (1, 2, 4 g), placebo groups 34 events) was 105 events. The “TEAEs Definitely Related to the study drug” value (all groups) was “No TEAEs were Definitely Related to the study drug” and the “deaths during the study” value (all groups) was “no deaths”.
